Target: 5-hydroxytryptamine receptor 2A (Rattus norvegicus, UniProt P14842)
Assay: biochemical
Assay type: tissue-based, Frontal cortex, Membrane
Description: Compound was measured for the inhibition of [3H]ketanserin binding to rat frontal cortex membrane (5-HT2A receptor)

Sequence of 5-hydroxytryptamine receptor 2A (P14842 whole entry): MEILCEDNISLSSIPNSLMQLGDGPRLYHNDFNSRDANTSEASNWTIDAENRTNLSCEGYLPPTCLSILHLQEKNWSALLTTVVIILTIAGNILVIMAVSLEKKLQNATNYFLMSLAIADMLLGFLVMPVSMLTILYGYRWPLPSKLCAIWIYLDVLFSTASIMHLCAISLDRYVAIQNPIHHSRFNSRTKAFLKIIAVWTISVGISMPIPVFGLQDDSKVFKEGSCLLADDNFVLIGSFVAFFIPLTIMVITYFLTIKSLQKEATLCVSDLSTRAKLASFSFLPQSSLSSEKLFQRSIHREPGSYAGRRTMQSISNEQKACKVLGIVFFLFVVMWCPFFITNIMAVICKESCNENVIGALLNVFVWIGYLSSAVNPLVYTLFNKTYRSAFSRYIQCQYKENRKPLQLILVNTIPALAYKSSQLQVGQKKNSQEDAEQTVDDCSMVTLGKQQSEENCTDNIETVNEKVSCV

| Compound | Ki [nM] |
| --- | --- |
| O=C1CC(CN2CCC(C(=O)c3ccc(F)cc3)CC2)Cc2[nH]c3ccccc3c21 (stereo not drawn) | 9.12 |
| COc1ccccc1N1CCN(CC2CC(=O)c3c([nH]c4ccccc34)C2)CC1 (stereo not drawn) | 631 |
| O=C1CC(CN2CCC(c3noc4cc(F)ccc34)CC2)Cc2[nH]c3ccccc3c21 (stereo not drawn) | 1.58 |

From ChEMBL document CHEMBL1131355 (Bioorg Med Chem Lett, 1998)
